Source: US20050009924A1 (priority 2003, published 2005)
Like-named read-outs stand apart in the source and are kept apart here.

Columns and labels:
[1] = test system: hepatitis B virus transfected hepatoma cell lines, HepG 2.2.15 cells; assay: Cytotoxicity assay, 2.2.15 cells; type: cell-based, human
human hepatoma G2 cells = assay: Cytotoxicity assay (XTT colorimetric), Hep G2; type: cell-based
rat glioma C6 cells = assay: Cytotoxicity assay (XTT colorimetric), C6 cells; type: cell-based

| Structure (SMILES) | IC50 ([1]; 48 h of drug exposure) [µM] | IC50 (human hepatoma G2 cells; 48 h of drug exposure) [µM] | IC50 (rat glioma C6 cells; 48 h of drug exposure) [µM] | IC50 [1] [µM] | IC50 (human hepatoma G2 cells) [µM] | IC50 (rat glioma C6 cells) [µM] |
| --- | --- | --- | --- | --- | --- | --- |
| CC(C)CNc1cccc2c1C(=O)c1c(NCC(C)C)cccc1C2=O [Vd] | > 20 | > 20 | 1.32 ± 0.01 |  |  |  |
| CCCCCCNc1cccc2c1C(=O)c1c(NCCCCCC)cccc1C2=O [Ve] |  |  |  | > 20 | > 20 | > 20 |
| CC(C)Nc1cccc2c1C(=O)c1c(NC(C)C)cccc1C2=O [Vf, 1,8-Bis(isopropylamine)-anthraquinone] | > 20 | > 20 | 1.24 ± 0.01 |  |  |  |
| O=C1c2cccc(NCCO)c2C(=O)c2c(NCCO)cccc21 [Vg] |  |  |  | > 20 | > 20 | 0.02 ± 0.01 |
| O=C1c2cccc(NCCCO)c2C(=O)c2c(NCCCO)cccc21 [Vh] | > 20 | > 20 | 1 ± 0.01 |  |  |  |
| O=C1c2cccc(NCCCCO)c2C(=O)c2c(NCCCCO)cccc21 [Vi] | > 20 | 1.65 | 0.41 ± 0.02 |  |  |  |
| CN(C)CCNc1cccc2c1C(=O)c1c(NCCN(C)C)cccc1C2=O [Vj] | 8.55 | 0.16 | 0.15 ± 0.04 |  |  |  |
| NCCCNc1cccc2c1C(=O)c1c(NCCCN)cccc1C2=O [Vk] | > 20 | 11.4 ± 0.17 | > 20 |  |  |  |
| NCCCCNc1cccc2c1C(=O)c1c(NCCCCN)cccc1C2=O [Vl] | > 20 | 11.5 ± 0.34 | > 20 |  |  |  |
| O=C1c2cccc(NC3CCCC3)c2C(=O)c2c(NC3CCCC3)cccc21 [Vn] | > 20 | > 20 | > 20 |  |  |  |
| O=C1c2cccc(NCc3ccccc3)c2C(=O)c2c(NCc3ccccc3)cccc21 [Vo] | > 20 | > 20 | 1.66 ± 0.09 |  |  |  |
| O=C1c2cccc(NCCc3ccccc3)c2C(=O)c2c(NCCc3ccccc3)cccc21 [Vp] | > 20 | > 20 | > 20 |  |  |  |
